Assay results published in patent publication US11413243B2, “Fusogenic compounds for delivery of biologically active molecules” (Nitto Denko Corporation, priority 2017, dated 2022).
Read-outs that look alike come from different tables or passages of the source.

System: HSP47
Settings: for HSP47 gene expression knockdown compared to control formulation without fusogenic compound: HEDC and S104 liposomes, all concentrations of siRNA
[1] = Table 3, siRNA 18 nM, rat stellate cells
[2] = Table 3, siRNA 75 nM, rat stellate cells
[3] = Table 3, siRNA 300 nM, rat stellate cells

Description: The in vitro activity for gene expression knockdown using an siRNA was measured using rat stellate cells in DMEM medium according to the following protocol: One day before the transfection, plate the cells in a 96-well plate at 3×10^3 cells per well for Stellate cells with 100 μl of medium containing 10% FBS and culture in a 37° C. incubator containing a humidified atmosphere of 5% CO2 in air. Before transfection, change medium to 90 μl of medium without antibiotics. Prepare the appropriate dilutions of the solution collected from the tubing in PBS buffer so that the addition of 10 μl into each well is sufficient to reach the desired concentration. 48 hours after transfection, wash the cells once with ice-cold PBS. Lyse the cells with 50 μl of Cell-to-Ct Lysis Buffer for 5-30 minutes at ambient temperature. Add 5 μl of Stop Solution and incubate for 2 minutes at ambient temperature. Measure mRNA level by qPCR with TAQMAN immediately. Alternatively, the samples can be frozen at −80° C. and assayed at later times. For qRT-PCR assay: Thaw all reagents on ice. Mix the pooled reagents in 0.2 ml PCR tubes. Dispense the set-up mixture into 384 well plate, 10 μl/well×3. Seal the plate with film, spin down mixture into the bottom of wells. Perform qRT-PCR assay.
In this example, an HSP47 siRNA was used to knockdown HSP47 gene. For TaqMan gene expression assays, HSP47 gene specific TaqMan probe was used.

| SMILES | activity for gene expression knockdown in stellate cells compared to control formulation (FIG. 24, Table 6 formulation HEDC:S104:DOPE:CH:DMPE-PEG with 2% (of total lipids) fusogenic compound) | HSP47 gene expression knockdown compared to control formulation without fusogenic compound (FIG. 46, fusogenic compound 2% of the total lipids) | HSP47 gene expression knockdown compared to control formulation without fusogenic compound (FIG. 46, fusogenic compound 10% of the total lipids) | HSP47 gene expression knockdown compared to control formulation without fusogenic compound (FIG. 47, fusogenic compound 2% of the total lipids) | % of Expression at Dose (nM) 18 nM [1] [%] | % of Expression at Dose (nM) 50 nM (Table 3, siRNA 50 nM, rat stellate cells, 48 hours after transfection) [%] | % of Expression at Dose (nM) 75 nM [2] [%] | % of Expression at Dose (nM) 200 nM (Table 3, siRNA 200 nM, rat stellate cells, 48 hours after transfection) [%] | % of Expression at Dose (nM) 300 nM [3] [%] | % of HSP47 expression in Stellate Cell, Conc siRNA 18 nM (Table 5, siRNA 18 nM, stellate cells) [%] | % of HSP47 expression in Stellate Cell, Conc siRNA 75 nM (Table 5, siRNA 75 nM, stellate cells) [%] | % of HSP47 expression in Stellate Cell, Conc siRNA 300 nM (Table 5, siRNA 300 nM, stellate cells) [%] |
| --- | --- | --- | --- | --- | --- | --- | --- | --- | --- | --- | --- | --- |
| CCCCC/C=C\C/C=C\CCCCCCCC(=O)OCCN(CCOC(=O)CCCCCCC/C=C\C/C=C\CCCCC)C(=O)CCC(=O)NCCCC[C@H](NC(=O)CCC(=O)N(CCOC(=O)CCCCCCC/C=C\C/C=C\CCCCC)CCOC(=O)CCCCCCC/C=C\C/C=C\CCCCC)C(=O)NCCCOCCOCCOCCCNC(=O)CCOCCOCCOCCOCCOCCC(=O)NCCCOCCOCCOCCCNC(=O)[C@H](CCCCNC(=O)CCC(=O)N(CCOC(=O)CCCCCCC/C=C\C/C=C\CCCCC)CCOC(=O)CCCCCCC/C=C\C/C=C\CCCCC)NC(=O)CCC(=O)N(CCOC(=O)CCCCCCC/C=C\C/C=C\CCCCC)CCOC(=O)CCCCCCC/C=C\C/C=C\CCCCC [Compound R4] | surprisingly increased | greatly and surprisingly increased | greatly and surprisingly increased | greatly and surprisingly increased | 16 | 44 | 10 | 15 | 6 | – | – | – |
| CCCCC/C=C\C/C=C\CCCCCCCC(=O)OCC(OC(=O)CCCCCCC/C=C\C/C=C\CCCCC)C1CCN(C(=O)CCC(=O)NCCCCC(NC(=O)CCC(=O)N2CCC(C(COC(=O)CCCCCCC/C=C\C/C=C\CCCCC)OC(=O)CCCCCCC/C=C\C/C=C\CCCCC)CC2)C(=O)NCCCOCCOCCOCCOCCOCCCNC(=O)C(CCCCNC(=O)CCC(=O)N2CCC(C(COC(=O)CCCCCCC/C=C\C/C=C\CCCCC)OC(=O)CCCCCCC/C=C\C/C=C\CCCCC)CC2)NC(=O)CCC(=O)N2CCC(C(COC(=O)CCCCCCC/C=C\C/C=C\CCCCC)OC(=O)CCCCCCC/C=C\C/C=C\CCCCC)CC2)CC1 (stereo not drawn) [Compound T11] | – | – | – | – | – | – | – | – | – | 11.1 | 4.5 | 1.8 |
| CCCCCCCC/C=C\CCCCCCCC(=O)OCCN(CCOC(=O)CCCCCCC/C=C\CCCCCCCC)C(=O)CCC(=O)NCCCC[C@H](NC(=O)CCC(=O)N(CCOC(=O)CCCCCCC/C=C\CCCCCCCC)CCOC(=O)CCCCCCC/C=C\CCCCCCCC)C(=O)NCCCOCCOCCOCCOCCOCCCNC(=O)[C@H](CCCCNC(=O)CCC(=O)N(CCOC(=O)CCCCCCC/C=C\CCCCCCCC)CCOC(=O)CCCCCCC/C=C\CCCCCCCC)NC(=O)CCC(=O)N(CCOC(=O)CCCCCCC/C=C\CCCCCCCC)CCOC(=O)CCCCCCC/C=C\CCCCCCCC [Compound S7] | – | – | – | – | 57 | – | 48 | – | 27 | – | – | – |
